# Test results reported in patent US20260240851A1, “Treatment of Parkinson's Disease in a Patient Using a Glucocerebrosidase Activator” (BIAL - R&D Investments, S.A., priority 2023, published 2026).
# Assays:
# clinical = conditions: both, human, plasma, 60 mg; for AUC(0-t): Sinemet portion, geometric mean
# Protocol: This was a Phase 1, non-randomized, open-label, 2-cohort, cross-over, DDI study in healthy male and female subjects.
# In Cohort 1, a single oral dose 100 mg/25 mg levodopa-carbidopa (Sinemet®) IR was administered alone on Day 1.
# [1] = LTI-291-004 imaging study in GBA-PD: plasma concentrations; assay type: in vivo, human; conditions: Day 7, Day 14, Day 28, GBA-PD
# Protocol: This study was a Phase 1B, randomized, double-blind, placebo-controlled, multiple oral dose study of Compound A in 14 subjects (aged 51 to 81 years) with GBA-PD. The objectives of this study were to investigate the safety, tolerability, and PK of multiple once-daily oral administration of Compound A and to explore the accompanying pharmacodynamic changes. Subjects received once-daily oral doses of 10 mg (n=6) or 60 mg (2×30 mg capsules) (n=6) Compound A or placebo (n=2) for 28 consecutive days. PK samples were measured once on Day 7 and Day 14 and 4 times after the last dose on Day 28. Plasma concentrations were summarized at each time point, and no PK parameters were estimated. The PD evaluations included fMRI measures; FDG-PET to determine the metabolic rate of glucose in specific regions of the brain; and functional outcome measures (MDS-UPDRS Part III and the MMSE). GluCer, GluSph, and LacCer and other sphingolipids were measured in PBMCs and plasma as biomarkers of pharmacological effect.
# GCase = biological target: T1, GCase (Homo sapiens, UniProt P04062); test: In vitro GCase brain homogenate activity assay superimposed on estimated human brain Cb,min,ss; assay type: biochemical; conditions: for minimum GCase activity in GBA-PD patients: brain Cmin at steady state (Cb,min,ss), estimated
# T1 construct: brain homogenate (5 μg/well) as enzyme source; from tissue; host or cells: human brain homogenate
# T1 sequence (P04062 40-536): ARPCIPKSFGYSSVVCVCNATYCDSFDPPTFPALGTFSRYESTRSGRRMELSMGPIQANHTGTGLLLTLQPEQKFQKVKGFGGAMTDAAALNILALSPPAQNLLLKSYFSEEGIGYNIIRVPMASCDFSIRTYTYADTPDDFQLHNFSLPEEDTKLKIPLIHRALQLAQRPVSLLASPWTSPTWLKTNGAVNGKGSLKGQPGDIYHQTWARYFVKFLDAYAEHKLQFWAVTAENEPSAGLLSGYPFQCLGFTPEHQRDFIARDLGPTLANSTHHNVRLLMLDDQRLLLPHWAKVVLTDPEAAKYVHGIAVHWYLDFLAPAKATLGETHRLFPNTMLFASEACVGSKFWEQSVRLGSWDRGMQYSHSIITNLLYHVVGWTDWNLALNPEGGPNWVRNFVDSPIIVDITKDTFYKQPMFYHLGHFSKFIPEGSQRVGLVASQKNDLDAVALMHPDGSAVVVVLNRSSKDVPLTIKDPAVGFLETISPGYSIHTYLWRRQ
# Source text: The in vitro measurement of GCase activity in human brain homogenates was used to correlate the exposure and GCase activity and to estimate the increase in GCase activity in the brain of GBA-PD patients at Cmin at steady state (Cb,min,ss) across different dose levels. The relationship between concentration observed in brain and CSF in rat was used to obtain the brain concentrations of Compound A in humans, assuming the same relationship conserved among mammalian species. The range of human estimated Cb,min,ss were superimposed to the corresponding concentration from in vitro study with human brain homogenates to obtain the GCase activation by Compound A.
# The activity of Compound A in the GCase assay was determined using 4-MUG (1 mM) as substrate and brain homogenate (5 μg/well) as enzyme source.
# A 500 μl aliquot of a 1.0 mg/ml solution of phosphatidylserine (PS, Sigma P7769) in chloroform was evaporated under a stream of nitrogen for 1 hour. The lipid film was dissolved with 4 minutes of vigorous vortexing in 41 ml of 176 mM K2HPO4/50 mM citric acid pH 4.7 containing 7.7 μl of triton X-100, resulting in a mixed micellar preparation with a composition of 0.32 mM triton and 4.6 mol % PS.
# 4-methylumbelliferyl-beta-D-glucopyranoside (4-MUG, ACROS-337025000) was dissolved in the micellar solution to a final concentration of 2 mM for use as the reaction substrate. The micellar/homogenate solution was prepared by adding 3.2 ml Triton X-100/phosphotidylserine mixed micelles containing 400 μg/mL brain homogenate. A 1.6 mL portion of this mixture received 32 μl conduritol B epoxide (CBE, 100 mM stock in DMSO) for final concentration of 2 mM CBE. The remaining 1.6 mL portion received 32 μl DMSO as solvent control. Compound A was diluted with DMSO from a 10 mM stock to the desired assay concentrations, and 0.45 μl of compound in DMSO was added to 75 μl of micellar/homogenate solution (+/−CBE).
# After a 30 minute pre-incubation at room temperature, the reaction was initiated by combining 25 μl of substrate solution with 25 μl of compound/GCase/homogenate mixture. The reaction proceeded for 30 minutes at room temperature for Rat, Cyno and Dog brain homogenates, 60 minutes for Mouse and Human brain homogenate. The reaction was stopped by adding 150 μl of 1M glycine, pH 12.5. The endpoint fluorescence intensity of the reaction was measured at excitation 365 nm, emission 440 nm on a SpectraMax i3 instrument (Molecular Devices). Compound activity was expressed relative to a DMSO control. […]
# An API4000 mass spectrometer equipped with a turbo ion spray source was used for detection in positive ion mode. Quantification was based on multiple reaction monitoring (MRM) of the transitions of m/z 359.2-174.2 for LTI-291 and m/z 365.3-180.2 for its internal standard. […]
structure (smiles),measurement,setting,value
"CCCCCO[C@H]1CC[C@H](NC(=O)c2cnn3c(C)cc(C)nc23)CC1 [Compound A, 5,7-dimethyl-N-((1S*,4S)-4-(pentyloxy)cyclohexyl)pyrazolo[1,5-a]pyrimidine-3-carboxamide]",Cmax,clinical,1940 ng/mL
same,Tmax,clinical,2 h
same,AUC(0-t),"clinical; AUC0-24, 60 mg Compound A alone",22800 ng·h/mL
same,AUC(0-t),"clinical; AUC0-t, 60 mg Compound A alone",22700 ng·h/mL
same,"Mean plasma concentrations, 60 mg vs 10 mg",[1],higher after the 60 mg dose than after the 10 mg dose
same,minimum GCase activity in GBA-PD patients,GCase; 10 mg,69.7-123%
same,minimum GCase activity relative to effective GCase activity,"GCase; 10 mg, dosing interval 24 h",approximately 2 times
same,minimum GCase activity in GBA-PD patients,GCase; 30 mg,163-306%
same,minimum GCase activity in GBA-PD patients,GCase; 60 mg,255-376%
